# Measurements taken from patent publication US20230159453A1 (COCRYSTAL PHARMA, INC., priority 2020, published 2023).
# Biological target: SARS2 protease (Severe acute respiratory syndrome coronavirus 2, UniProt P0DTD1)
# Test: SARS-CoV-2 protease inhibition assay (SARS2 FRET protease assay)
# Format: biochemical
# Conditions: SARS-CoV-2 protease 25 nM, FRET, peptide substrate 1.3 μM, 30 minutes at 30° C., compounds 20 μM to 1.0 nM; read-out: IC50
row,Structure (SMILES),IC50
1,"CCOP(=O)(OCC)C(O)C(CC1CC2(CCN(C(C)=O)CC2)NC1=O)NC(=O)C(CC(C)C)NC(=O)OCc1cccc(Cl)c1 (stereo in doubt) [Compound C69, 3-Chlorobenzyl ((2R)-1-((3-(8-acetyl-2-oxo-1,8-diazaspiro[4.5]decan-3-yl)-1-(diethoxyphosphoryl)-1-hydroxypropan-2-yl)amino)-4-methyl-1-oxopentan-2-yl)carbamate]",26.8 µM
2,"CCOP(=O)(OCC)C(O)C(CC1CC2(CCCCC2)NC1=O)NC(=O)C(CC(C)C)NC(=O)OCc1cccc(Cl)c1 (stereo in doubt) [Compound C85, 3-Chlorobenzyl ((2R)-1-((1-(diethoxyphosphoryl)-1-hydroxy-3-(2-oxo-1-azaspiro[4.5]decan-3-yl)propan-2-yl)amino)-4-methyl-1-oxopentan-2-yl)carbamate]",17.8 µM
3,"CC(C)C[C@H](NC(=O)OC1CCCC1Cc1ccccc1)C(=O)NC(C[C@@H]1CCNC1=O)C(=O)C(=O)NC1CC1 (stereo in doubt) [Compound C89, 2-Benzylcyclopentyl ((S)-1-(((R)-4-(cyclopropylamino)-3,4-dioxo-1-((S)-2-oxopyrrolidin-3-yl)butan-2-yl)amino)-4-methyl-1-oxopentan-2-yl)carbamate]",0.3 µM
4,"CCCC1CCC(OC(=O)NC(CC(C)C)C(=O)NC(CC2CC3(CCN(C(C)=O)CC3)NC2=O)C(O)P(=O)(OCC)OCC)CC1 (stereo in doubt) [Compound C91, 4-Propylcyclohexyl ((2R)-1-((3-(8-acetyl-2-oxo-1,8-diazaspiro[4.5]decan-3-yl)-1-(diethoxyphosphoryl)-1-hydroxypropan-2-yl)amino)-4-methyl-1-oxopentan-2-yl)carbamate]",> 20 µM
5,"CC(=O)N1CCC2(CC1)CC(CC(NC(=O)C(Cc1ccccc1)NC(=O)c1cnc3ccccc3n1)C(=O)C(N)=O)C(=O)N2 (stereo in doubt) [Compound C130, N-((2S)-1-((1-(8-acetyl-2-oxo-1,8-diazaspiro[4.5]decan-3-yl)-4-amino-3,4-dioxobutan-2-yl)amino)-1-oxo-3-phenylpropan-2-yl)quinoxaline-2-carboxamide]",> 20 µM
6,"CCOP(=O)(OCC)C(O)[C@H](CCC(=O)N1CCN(C(=O)OC(C)(C)C)C(c2ccccc2)C1)NC(=O)[C@H](CC1CCCCC1)NC(=O)OCc1cccc(Cl)c1 (stereo partly drawn) [Compound C1, tert-butyl 4-((4S)-4-((S)-2-((((3-chlorobenzyl)oxy)carbonyl)amino)-3-cyclohexylpropanamido)-5-(diethoxyphosphoryl)-5-hydroxypentanoyl)-2-phenylpiperazine-1-carboxylate]",> 200 µM
7,"CCOP(=O)(OCC)C(O)[C@H](CCC(=O)N(C)C)NC(=O)C(CC(C)(C)C)NC(=O)OCc1cccc(Cl)c1 (stereo partly drawn) [Compound C2, 3-Chlorobenzyl (1-(((2S)-1-(diethoxyphosphoryl)-5-(dimethylamino)-1-hydroxy-5-oxopentan-2-yl)amino)-4,4-dimethyl-1-oxopentan-2-yl)carbamate]",71 µM
8,CCOP(=O)(OCC)C(O)[C@H](CCC(=O)N1CCNCc2ccccc21)NC(=O)[C@H](CC1CCCCC1)NC(=O)OCc1cccc(Cl)c1 (stereo partly shown) [Compound C3],> 200 µM
9,CC1C[C@H](NC(=O)[C@H](CC2CCCCC2)NC(=O)OCc2cccc(Cl)c2)C(O)N(CCc2ccccc2)C1=O (stereo partly shown) [Compound C4],> 200 µM
10,"CCOP(=O)(OCC)C(O)[C@H](CCC(=O)N(C)C1(Cc2ccccc2)CC1)NC(=O)[C@H](CC1CCCCC1)NC(=O)OCc1cccc(Cl)c1 (stereo partly drawn) [Compound C5, 3-Chlorobenzyl ((2S)-1-(((2S)-5-((1-benzylcyclopropyl)(methyl)amino)-1-(diethoxyphosphoryl)-1-hydroxy-5-oxopentan-2-yl)amino)-3-cyclohexyl-1-oxopropan-2-yl)carbamate]",> 200 µM
11,"CCCCCOC(=O)N[C@@H](CC1CCCCC1)C(=O)N[C@@H](CCC(=O)N1CCOc2ccccc2C1)C(O)P(=O)(OCC)OCC (stereo partly drawn) [Compound C6, Pentyl ((2S)-3-cyclohexyl-1-(((2S)-1-(diethoxyphosphoryl)-5-(2,3-dihydrobenzo[f][1,4]oxazepin-4(5H)-yl)-1-hydroxy-5-oxopentan-2-yl)amino)-1-oxopropan-2-yl)carbamate]",> 200 µM
12,"CCCCCCOC(=O)N[C@@H](CC1CCCCC1)C(=O)N[C@@H](CCC(=O)N1CCOc2ccccc2C1)C(O)P(=O)(OCC)OCC (stereo partly drawn) [Compound C7, Hexyl ((2S)-3-cyclohexyl-1-(((2S)-1-(diethoxyphosphoryl)-5-(2,3-dihydrobenzo[f][1,4]oxazepin-4(5H)-yl)-1-hydroxy-5-oxopentan-2-yl)amino)-1-oxopropan-2-yl)carbamate]",> 200 µM
13,"CCOP(=O)(OCC)C(O)[C@H](CC1CCN(CCc2ccccc2)C1=O)NC(=O)[C@H](CC1CCCCC1)NC(=O)OCc1cccc(Cl)c1 (stereo partly drawn) [Compound C8, 3-Chlorobenzyl ((2S)-3-cyclohexyl-1-((1-(diethoxyphosphaneyl)-1-hydroxy-3-(2-oxo-1-phenethylpyrrolidin-3-yl)propan-2-yl)amino)-1-oxopropan-2-yl) carbamate]",> 200 µM
14,"CCOP(=O)(OCC)C(O)[C@H](CCC(=O)N1CCOc2ccc(Cl)cc2C1)NC(=O)[C@H](CC1CCCCC1)NC(=O)OCc1cccc(Cl)c1 (stereo partly drawn) [Compound C9, 3-Chlorobenzyl ((2S)-1-(((2S)-5-(7-chloro-2,3-dihydrobenzo[f][1,4]oxazepin-4(5H)-yl)-1-(diethoxyphosphoryl)-1-hydroxy-5-oxopentan-2-yl)amino)-3-cyclohexyl-1-oxopropan-2-yl)carbamate]",> 200 µM
15,"CN(CCc1ccccc1)C(=O)CC[C@@H](C=O)NC(=O)[C@H](CC1CCCCC1)NC(=O)OC1(c2cccc(Cl)c2)CC1 [Compound C10, 1-(3-Chlorophenyl) cyclopropyl ((S)-3-cyclohexyl-1-(((S)-5-(methyl (phenethyl)amino)-1,5-dioxopentan-2-yl)amino)-1-oxopropan-2-yl) carbamate]",> 200 µM
16,"CCOP(=O)(OCC)C(O)[C@H](CC(C)C(=O)N1CCOc2ccccc2C1)NC(=O)[C@H](CC1CCCCC1)NC(=O)OCc1cccc(Cl)c1 (stereo partly drawn) [Compound C11, 3-chlorobenzyl ((2S)-3-cyclohexyl-1-(((2S)-1-(diethoxyphosphoryl)-5-(2,3-dihydrobenzo[f][1,4]oxazepin-4(5H)-yl)-1-hydroxy-4-methyl-5-oxopentan-2-yl)amino)-1-oxopropan-2-yl)carbamate]",> 200 µM
17,"CCOP(=O)(OCC)C(O)[C@H](CCC(=O)N1CCNC(c2ccccc2)C1)NC(=O)[C@H](CC1CCCCC1)NC(=O)OCc1cccc(Cl)c1 (stereo partly drawn) [Compound C12, 3-Chlorobenzyl ((2S)-3-cyclohexyl-1-(((2S)-1-(diethoxyphosphoryl)-1-hydroxy-5-oxo-5-(3-phenylpiperazin-1-yl)pentan-2-yl)amino)-1-oxopropan-2-yl)carbamate]",> 200 µM
18,"CCOP(=O)(OCC)C(O)[C@H](CCC(=O)N1CCOc2ccccc2C1)NC(=O)[C@H](CC1CCCCC1)NC(=O)OC1CCN(C(=O)OC(C)(C)C)CC1 (stereo partly drawn) [Compound C13, Tert-butyl 4-((((2S)-3-cyclohexyl-1-(((2S)-1-(diethoxyphosphoryl)-5-(2,3-dihydrobenzo[f][1,4]oxazepin-4(5H)-yl)-1-hydroxy-5-oxopentan-2-yl)amino)-1-oxopropan-2-yl)carbamoyl)oxy)piperidine-1-carboxylate]",> 200 µM
19,"CCCCCCCOC(=O)N[C@@H](CC1CCCCC1)C(=O)N[C@@H](CCC(=O)N1CCOc2ccccc2C1)C(O)P(=O)(OCC)OCC (stereo partly drawn) [Compound C14, Heptyl ((2S)-3-cyclohexyl-1-(((2S)-1-(diethoxyphosphoryl)-5-(2,3-dihydrobenzo[f][1,4]oxazepin-4(5H)-yl)-1-hydroxy-5-oxopentan-2-yl)amino)-1-oxopropan-2-yl)carbamate]",> 200 µM
20,"O=C[C@H](CCC(=O)N1CCOc2ccc(Cl)cc2C1)NC(=O)[C@H](CC1CCCCC1)NC(=O)OCc1cccc(Cl)c1 [Compound C15, 3-Chlorobenzyl ((S)-1-(((S)-5-(7-chloro-2,3-dihydrobenzo[f][1,4]oxazepin-4(5H)-yl)-1,5-dioxopentan-2-yl)amino)-3-cyclohexyl-1-oxopropan-2-yl)carbamate]",> 200 µM
21,"CCCCCOC(=O)N[C@@H](CC1CCCCC1)C(=O)N[C@H](C=O)CCC(=O)N1CCOc2ccccc2C1 [Compound C16, Pentyl ((S)-3-cyclohexyl-1-(((S)-5-(2,3-dihydrobenzo[f][1,4]oxazepin-4(5H)-yl)-1,5-dioxopentan-2-yl)amino)-1-oxopropan-2-yl)carbamate]",37.8 µM
22,"CN(C(=O)CC[C@@H](C=O)NC(=O)[C@H](CC1CCCCC1)NC(=O)OCc1cccc(Cl)c1)C1(Cc2ccccc2)CC1 [Compound C17, 3-Chlorobenzyl ((S)-1-(((S)-5-((1-benzylcyclopropyl)(methyl)amino)-1,5-dioxopentan-2-yl)amino)-3-cyclohexyl-1-oxopropan-2-yl)carbamate]",2.7 µM
23,"CCCOC(=O)N[C@@H](CC1CCCCC1)C(=O)N[C@H](C=O)CCC(=O)N1CCOc2ccccc2C1 [Compound C18, Propyl ((S)-3-cyclohexyl-1-(((S)-5-(2,3-dihydrobenzo[f][1,4]oxazepin-4(5H)-yl)-1,5-dioxopentan-2-yl)amino)-1-oxopropan-2-yl)carbamate]",49.3 µM
24,"CCCOC(=O)N[C@@H](CC1CCCCC1)C(=O)N[C@@H](CCC(=O)N1CCOc2ccccc2C1)C(O)P(=O)(OCC)OCC (stereo partly drawn) [Compound C19, Propyl ((2S)-3-cyclohexyl-1-(((2S)-1-(diethoxyphosphoryl)-5-(2,3-dihydrobenzo[f][1,4]oxazepin-4(5H)-yl)-1-hydroxy-5-oxopentan-2-yl)amino)-1-oxopropan-2-yl)carbamate]",94.3 µM
25,"CC(C)(C)OC(=O)N1CCN(C(=O)CC[C@@H](C=O)NC(=O)[C@H](CC2CCCCC2)NC(=O)OCc2cccc(Cl)c2)CC1c1ccccc1 (stereo partly drawn) [Compound C20, tert-butyl 4-((S)-4-((S)-2-((((3-chlorobenzyl)oxy)carbonyl)amino)-3-cyclohexylpropanamido)-5-oxopentanoyl)-2-phenylpiperazine-1-carboxylate]",> 200 µM
